Results reported in patent US6660494B2 (priority 2000, dated 2003).
Entries after “also recorded” stand apart in the source; their conditions may differ. Like-named read-outs stand apart in the source and are kept apart here.

Key:
solubility in water = assay type: physicochemical
[1] = target: PC-PLC from Clostridium perfringens (Clostridium perfringens, UniProt P0C216); assay type: biochemical
[2] = stability on storage, in buffer solutions and in plating media; assay type: physicochemical; conditions: for stability in conventional buffer solutions: citrate/hydrochloric acid, Hepes/NaOH, Tris/HCl, boric acid/potassium chloride-sodium hydroxide, pH about 4 to about 10, ambient temperature; for stability in conventional plating media: e.g. Tryptic Soy Agar; for storage stability: temperatures below about 5° C., protected from light
[3] = target: PC-PLC of Clostridium perfringens (Clostridium perfringens, UniProt P0C216); assay type: biochemical
Chain of PC-PLC of Clostridium perfringens (P0C216 29-398 limits assumed): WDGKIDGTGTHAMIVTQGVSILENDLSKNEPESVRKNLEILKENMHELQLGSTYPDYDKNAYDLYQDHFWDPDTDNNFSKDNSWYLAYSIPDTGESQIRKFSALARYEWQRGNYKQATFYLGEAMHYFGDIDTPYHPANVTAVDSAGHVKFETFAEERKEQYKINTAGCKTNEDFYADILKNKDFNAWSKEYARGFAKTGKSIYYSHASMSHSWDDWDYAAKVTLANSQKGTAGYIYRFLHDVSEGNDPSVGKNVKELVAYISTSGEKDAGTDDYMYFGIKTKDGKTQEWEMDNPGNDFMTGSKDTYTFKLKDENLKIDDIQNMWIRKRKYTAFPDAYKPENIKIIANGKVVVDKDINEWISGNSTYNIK

Chain of PC-PLC from Clostridium perfringens (P0C216 29-398 limits assumed): as above

C[N+](C)(C)CCOP(=O)([O-])Oc1c[nH]c2ccc(Br)c(Cl)c12 [X-CP, 5-bromo-4-chloro-3-indoxyl choline phosphate]
solubility in water (solubility in water): freely soluble in water
Vmax [1]: 93.6 nMol min^−1 (μg enzyme)^−1 and ≈ 94 μMol min^−1 (mg enzyme)^−1
Vmax (rate of cleavage under saturating conditions) [1]: 312 nmol/min
cleavage at 60° C. versus ambient temperature, times faster [1]: approximately 160
factor of increase of enzymatic activity for every 10° C. of rise in temperature [1]: 3-4
Rate ([1]; 22° C.): 0.65 nmol/min
Specific Activity ([1]; 22° C.): 0.1 µmol/min/mg
Rate ([1]; 41° C.): 8.1 nmol/min
Specific Activity ([1]; 41° C.): 1.2 µmol/min/mg
Rate ([1]; 46° C.): 19.7 nmol/min
Specific Activity ([1]; 46° C.): 3.0 µmol/min/mg
Rate ([1]; 51° C.): 25.8 nmol/min
Specific Activity ([1]; 51° C.): 3.9 µmol/min/mg
Rate ([1]; 55° C.): 48.5 nmol/min
Specific Activity ([1]; 55° C.): 7.3 µmol/min/mg
Rate ([1]; 60° C.): 106.8 nmol/min
Specific Activity ([1]; 60° C.): 16.0 µmol/min/mg
Km ([1]; read-out: Km (Michaelis-Menten constant)): ~42 mM
stability in conventional buffer solutions [2]: at least ten days
stability in conventional plating media [2]: stable
storage stability [2]: stable during extended periods of time
additional effect on cleavage rate when these detergents/surfactants are combined with BSA [3]: no additional enhancement
effect of detergent/surfactant additive on cleavage rate of the enzyme [3]: slight enhancement
color of the solution ([3]; pH 7): Bluish; also recorded: Colorless; also recorded: Pale blue; also recorded: Light blue; also recorded: Colorless*

C[N+](C)(C)CCOP(=O)([O-])Oc1c[nH]c2ccccc12 [Y-CP, 3-indoxylcholine phosphate]
solubility in water (solubility in water): freely soluble in water
stability in conventional buffer solutions [2]: at least ten days
stability in conventional plating media [2]: stable
storage stability [2]: stable during extended periods of time
